Assay results taken from publication PMC6429297, “Novel 8-Substituted Coumarins That Selectively Inhibit Human Carbonic Anhydrase IX and XII” (International Journal of Molecular Sciences, 2019).
Like-named read-outs stand apart in the source and are kept apart here.

Legend:
hCA I = hCA I (Homo sapiens, UniProt P00915); test: stopped-flow CO2 hydrase assay, hCA I
Method: (§1) An Applied Photophysics stopped-flow instrument has been used for assaying the CA catalyzed CO2 hydration activity [24]. […] The uncatalyzed rates were determined in the same manner and subtracted from the total observed rates. Stock solutions of inhibitor (0.1 mM) were prepared in distilled-deionized water and dilutions up to 0.005 nM were done thereafter with the assay buffer. Inhibitor and enzyme solutions were preincubated together for 6 hours at room temperature prior to assay, in order to allow for the formation of the E-I complex. The inhibition constants were obtained by nonlinear least-squares methods using PRISM 3 (GraphPad Software, San Diego, CA, USA) and the Cheng–Prusoff equation, as reported by Maresca et al. [14], and represent the mean from at least three different determinations. All CA isoforms were recombinant ones obtained in-house.

hCA XII = hCA XII (Homo sapiens, UniProt O43570); test: stopped-flow CO2 hydrase assay, hCA XII
Method: as §1

hCA IX = hCA IX (Homo sapiens, UniProt Q16790); test: stopped-flow CO2 hydrase assay, hCA IX; conditions: recombinant hCA IX, 6 h preincubation, mean from three assays, errors ±5–10%
Method: as §1

hCA II = hCA II (Homo sapiens, UniProt P00918); test: stopped-flow CO2 hydrase assay, hCA II
Method: as §1

[1] = parameters: method as in PMID 20024932; conditions: hepatotoxic effect of coumarin; cited from earlier work

Chain of hCA I (P00915 whole entry): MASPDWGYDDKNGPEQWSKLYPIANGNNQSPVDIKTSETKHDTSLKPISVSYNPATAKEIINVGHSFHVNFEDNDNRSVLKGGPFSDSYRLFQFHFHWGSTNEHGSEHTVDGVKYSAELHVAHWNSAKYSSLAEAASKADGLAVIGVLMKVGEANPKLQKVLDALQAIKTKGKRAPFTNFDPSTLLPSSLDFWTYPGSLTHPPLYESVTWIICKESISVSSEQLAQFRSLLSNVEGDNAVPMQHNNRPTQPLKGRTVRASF
Chain of hCA XII (O43570 25-354): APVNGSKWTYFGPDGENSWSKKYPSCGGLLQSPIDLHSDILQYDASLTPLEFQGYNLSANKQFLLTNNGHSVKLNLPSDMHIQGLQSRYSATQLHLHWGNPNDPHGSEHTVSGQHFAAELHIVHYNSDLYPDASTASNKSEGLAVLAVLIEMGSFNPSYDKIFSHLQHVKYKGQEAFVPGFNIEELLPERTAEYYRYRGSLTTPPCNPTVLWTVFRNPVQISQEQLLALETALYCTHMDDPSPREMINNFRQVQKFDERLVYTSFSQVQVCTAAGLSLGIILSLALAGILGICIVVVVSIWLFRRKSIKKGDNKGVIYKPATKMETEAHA

## Cc1cc(=O)oc2cc(O)ccc12 [Compound 1, 7-Hydroxy-4-methylchromen-2-one]
hCA I
  Ki: > 10000 nM
hCA XII
  Ki: 5.8 nM
hCA IX; Ki (nM) hCA IX
  Ki: 32.1 nM
hCA II
  Ki: > 10000 nM

## Cc1cc(=O)oc2c(CN3CCN(Cc4c(O)ccc5c(C)cc(=O)oc45)CC3)c(O)ccc12 [Compound 2, 1,4-bis[(7-Hydroxy-4-methylcoumarin-8-yl)methyl] piperazine]
hCA I
  Ki: > 10000 nM
hCA XII
  Ki: 8.5 nM
hCA IX; Ki (nM) hCA IX
  Ki: 67.5 nM
hCA II
  Ki: > 10000 nM

## Cc1cc(=O)oc2c(CN3CCN(C)CC3)c(O)ccc12 [Compound 3, 7-Hydroxy-4-methyl-8-(4-methylpiperazin-1-ylmethyl)chromen-2-one]
hCA I
  Ki: > 10000 nM
hCA XII
  Ki: 9.6 nM
hCA IX; Ki (nM) hCA IX
  Ki: 88.7 nM
hCA II
  Ki: > 10000 nM

## CCN1CCN(Cc2c(O)ccc3c(C)cc(=O)oc23)CC1 [Compound 4, 8-(4-Ethylpiperazin-1-ylmethyl)-7-hydroxy-4-methylchromen-2-one]
hCA I
  Ki: > 10000 nM
hCA XII
  Ki: 6.4 nM
hCA IX; Ki (nM) hCA IX
  Ki: 32 nM
hCA II
  Ki: > 10000 nM

## Cc1cc(=O)oc2c(CN3CCN(CCO)CC3)c(O)ccc12 [Compound 5, 7-Hydroxy-8-[4-(2-hydroxyethyl)piperazin-1-ylmethyl]-4-methylchromen-2-one]
hCA I
  Ki: > 10000 nM
hCA XII
  Ki: 7.1 nM
hCA IX; Ki (nM) hCA IX
  Ki: 295 nM
hCA II
  Ki: > 10000 nM

## C=CCN1CCN(Cc2c(O)ccc3c(C)cc(=O)oc23)CC1 [Compound 6, 8-(4-Allylpiperazin-1-ylmethyl)-7-hydroxy-4-methylchromen-2-one]
hCA I
  Ki: > 10000 nM
hCA XII
  Ki: 5.6 nM
hCA IX; read-out: Ki (nM) hCA IX
  Ki: 27.1 nM
hCA II
  Ki: > 10000 nM

## Cc1cc(=O)oc2c(CN3CCN(c4ccccc4)CC3)c(O)ccc12 [Compound 7, 7-Hydroxy-4-methyl-8-(4-phenylpiperazin-1-ylmethyl)chromen-2-one]
hCA I
  Ki: > 10000 nM
hCA XII
  Ki: 7.7 nM
hCA IX; Ki (nM) hCA IX
  Ki: 115 nM
hCA II
  Ki: > 10000 nM

## Cc1cc(=O)oc2c(CN3CCN(c4ccc(Cl)cc4)CC3)c(O)ccc12 [Compound 8, 8-[4-(4-Chlorophenyl)piperazin-1-ylmethyl]-7-hydroxy-4-methylchromen-2-one]
hCA I
  Ki: > 10000 nM
hCA XII
  Ki: 8.9 nM
hCA IX; Ki (nM) hCA IX
  Ki: 190 nM
hCA II
  Ki: > 10000 nM

## Cc1cc(=O)oc2c(CN3CCN(c4ccc(F)cc4)CC3)c(O)ccc12 [Compound 9, 8-[(4-(4-Fluorophenyl)piperazin-1-yl)methyl]-7-hydroxy-4-methylchromen-2-one]
hCA I
  Ki: > 10000 nM
hCA XII
  Ki: 8.1 nM
hCA IX; Ki (nM) hCA IX
  Ki: 92.8 nM
hCA II
  Ki: > 10000 nM

## Cc1cc(=O)oc2c(CN3CCN(c4ccc(Br)cc4)CC3)c(O)ccc12 [Compound 10, 7-Hydroxy-8-[4-(bromophenyl)-piperazin-1-ylmethyl]-4-methylchromen-2-one]
hCA I
  Ki: > 10000 nM
hCA XII
  Ki: 9.4 nM
hCA IX; Ki (nM) hCA IX
  Ki: 162 nM
hCA II
  Ki: > 10000 nM

## Cc1ccc(N2CCN(Cc3c(O)ccc4c(C)cc(=O)oc34)CC2)cc1 [Compound 11, 7-Hydroxy-4-methyl-8-(4-p-tolyl-piperazin-1-ylmethyl)chromen-2-one]
hCA I
  Ki: > 10000 nM
hCA XII
  Ki: 9.6 nM
hCA IX; Ki (nM) hCA IX
  Ki: 308 nM
hCA II
  Ki: > 10000 nM

## Cc1cc(=O)oc2c(CN3CCN(c4ccccc4F)CC3)c(O)ccc12 [Compound 12, 8-[4-(2-Fluorophenyl)piperazin-1-ylmethyl]-7-hydroxy-4-methylchromen-2-one]
hCA I
  Ki: > 10000 nM
hCA XII
  Ki: 26.4 nM
hCA IX; Ki (nM) hCA IX
  Ki: 121 nM
hCA II
  Ki: > 10000 nM

## Cc1cc(=O)oc2c(CN3CCN(Cc4ccc5c(c4)OCO5)CC3)c(O)ccc12 [Compound 13, 8-(4-Benzo[1,3]dioxol-5-ylmethyl-piperazin-1-ylmethyl)-7-hydroxy-4-methyl-chromen-2-one]
hCA I
  Ki: > 10000 nM
hCA XII
  Ki: 8.5 nM
hCA IX; Ki (nM) hCA IX
  Ki: 76.8 nM
hCA II
  Ki: > 10000 nM

## O=c1ccc2ccccc2o1 [coumarin]
[1]
  tolerable daily intake: 0.1 mg/kg body weight
